This is an account of results in patent US11382956B2, “Amylin analogues” (Zealand Pharma A/S, priority 2016, dated 2022).

The EC50 is the concentration that produces a half-maximal response.

The target in data set [1] is T1, recombinant human calcitonin receptor (hCT-R) (Homo sapiens, UniProt P30988).
T1 construct: host or cells: human astrocytoma cell line 1321N1
T1 sequence (P30988 25-474): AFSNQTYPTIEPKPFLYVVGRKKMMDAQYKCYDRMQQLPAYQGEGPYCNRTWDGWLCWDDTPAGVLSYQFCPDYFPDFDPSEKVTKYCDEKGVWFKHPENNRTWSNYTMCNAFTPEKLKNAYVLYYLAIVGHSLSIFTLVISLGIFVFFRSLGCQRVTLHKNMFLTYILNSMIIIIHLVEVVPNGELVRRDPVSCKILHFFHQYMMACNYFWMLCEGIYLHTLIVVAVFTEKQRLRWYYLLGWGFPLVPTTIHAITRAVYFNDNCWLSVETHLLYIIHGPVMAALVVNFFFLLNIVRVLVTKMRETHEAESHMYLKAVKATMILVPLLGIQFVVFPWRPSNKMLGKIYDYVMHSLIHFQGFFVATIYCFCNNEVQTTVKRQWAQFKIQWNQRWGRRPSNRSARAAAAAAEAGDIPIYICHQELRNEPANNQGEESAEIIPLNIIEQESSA
Put plainly: hCT-R cAMP assay (AlphaScreen) in 1321N1 cells. The data set is classed as cell-based. To be noted: cAMP formation, 45 min stimulation. In a few lines:
(§1)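 EC50 values come from curve fits over at least 7 peptide concentrations, with cAMP read by AlphaScreen competition after 1 h in the dark. Cells were 1321N1 lines carrying human calcitonin receptor, with RAMP3 co-expressed for AMY3, treated 45 min at room temperature in the presence of IBMX.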
Background: Cyclic AMP is a second messenger, typically raised through Gs and lowered through Gi signalling.

Data set [2] in a line: Pharmacokinetic (PK) profiling in rats. The settings on record: male, Sprague Dawley, plasma; rat, single sc bolus 30 nmol/kg; read-out: in vivo half life t1/2 (plasma terminal elimination half-life) (converted). The procedure:
Sprague Dawley male rats were given a single subcutaneous (sc) bolus of each peptide to be tested, as specified below.
30 nmol/kg doses of compound were administered. Blood samples were drawn from the tail vein prior to dosing and at 24 and 96 hours after dosing. The rats were euthanized immediately after the last blood sampling by concussion and cervical dislocation.
The dosing vehicle used for each test peptide was a mannitol-containing histidine buffer (pH 7.0). Plasma samples were analyzed after precipitation with ethanol by liquid chromatography mass spectrometry (LC-MS/MS). Mean plasma concentrations were used for calculation of the pharmacokinetic parameters.
Plasma terminal elimination half-life (t1/2) was determined as In(2)/λz, where λz is the magnitude of the slope of the log linear regression of the log concentration versus time profile during the terminal phase.

A short description of data set [3]: Assessment of chemical stability in 40 mM buffers at 40° C. (RP-HPLC). The settings on record: 1 mg/mL; for % degradation after 72 h at 40° C. pH4 acetate: acetate buffer pH 4, 72 h; for % degradation after 72 h at 40° C. pH6 phosphate: phosphate buffer pH 6, 72 h; for % degradation after 14 days at 40° C. pH6 phosphate: phosphate buffer pH 6, 14 days; for % degradation after 72 h at 40° C. pH7 phosphate: phosphate buffer pH 7, 72 h; for % degradation after 14 days at 40° C. pH7 phosphate: phosphate buffer pH 7, 14 days. The class given is physicochemical. In a few lines:
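Degradation is the main-peak area-% at each time point minus that at t=0, measured by C8 reversed-phase HPLC (TFA/acetonitrile/water gradient, 220 nm). Incubation at 40° C for 3 or 14 days, 1 mg/mL peptide in 40 mM buffer at pH 4, 6 or 7.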

A short description of data set [4]: Assessment of physical stability: fibril formation by Thioflavin T fluorescence. To be noted: 1 mg/mL peptide; for Fibrillation (in buffer) pH4 acetate: 50 mM acetate buffer pH 4.0, 96 hours at 40° C.; for Fibrillation (in buffer) pH7 histidine: 50 mM histidine buffer pH 7.0, 96 hours at 40° C.; for Fibrillation (in buffer) pH7 phosphate: 50 mM phosphate buffer pH 7.0, 96 hours at 40° C. Set-up: key: FND = fibrillation not detected; FD = fibrillation detected. The class given is physicochemical. In a few lines: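 Fibrillation detected (FD) means a significant rise in ThT fluorescence over 96 hours at 40° C, read at 10 min intervals each preceded by 300 s automixing. Samples: 1 mg/mL peptide, 40 μM ThT, in 50 mM phosphate or histidine (pH 7.0) or acetate (pH 4.0), triplicate.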

A short description of data set [5]: Effect on acute food intake and body weight in normal Sprague Dawley rats. The settings on record: Dose: 30 nmol/kg sc, vehicle-corrected. The class given is in vivo, Sprague Dawley (SD) rats.
Data set [6] concerns the target T2, recombinant human amylin 3 receptor (hAMYR3) (Homo sapiens, UniProt O60896+P30988).
T2 construct: host or cells: human astrocytoma cell line 1321N1
T2 sequence (P30988 25-474): T1 sequence (P30988 25-474)
T2 sequence (O60896 24-148 partner): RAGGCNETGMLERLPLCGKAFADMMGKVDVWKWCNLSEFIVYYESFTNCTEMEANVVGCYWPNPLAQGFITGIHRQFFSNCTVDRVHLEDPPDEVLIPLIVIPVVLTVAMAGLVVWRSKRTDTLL
The data set is described as follows: hAMYR3 cAMP assay (AlphaScreen) in 1321N1 cells. The class given is cell-based. The settings on record: cAMP formation, 45 min stimulation. In a few lines: as §1

Numbered stars: 1 amine (or outer) side, 2 acyl side, 3 side chain; on linkers, the order of the positions; unused ones are H or OH. Bridge positions count the residues as written; N and C are the ends. Square brackets hold non-standard residues; d marks the D form. Peptide text beside a SMILES is read from it. * marks the point of attachment. C20 diacid = O=C(O)CCCCCCCCCCCCCCCCCCC(=O)*; γGlu = O=C(O)[C@H](CCC(=O)[*:2])N[*:1]; Hyp = O=C(O)[C@@H]1C[C@@H](O)CN1; NMeI = CC[C@H](C)[C@H](NC)C(=O)O; Aad = N[C@@H](CCCC(=O)O)C(=O)O; Orn = NCCC[C@H](N)C(=O)O; Sar = CNCC(=O)O A value given as a limit tells only on which side of the number the result lay.

For `CC[C@H](C)[C@@H](C(=O)N[C@@H](CC(C)C)C(=O)N[C@@H](CO)C(=O)N[C@@H](CO)C(=O)N[C@H](C(=O)N[C@@H](CCC(=O)O)C(=O)N[C@H](C(=O)NCC(=O)N[C@@H](CO)C(=O)N[C@@H](CC(N)=O)C(=O)N[C@H](C(=O)N1C[C@H](O)C[C@H]1C(N)=O)[C@@H](C)O)C(C)C)[C@@H](C)O)N(C)C(=O)[C@H](C)NC(=O)CN(C)C(=O)[C@H](Cc1ccccc1)NC(=O)[C@H](CO)NC(=O)[C@H](CO)NC(=O)[C@H](CCCNC(=N)N)NC(=O)[C@H](CCC(N)=O)NC(=O)[C@H](CC(C)C)NC(=O)[C@H](Cc1ccccc1)NC(=O)[C@H](Cc1c[nH]cn1)NC(=O)[C@H](C)NC(=O)[C@H](CC(C)C)NC(=O)[C@H](CCCNC(=N)N)NC(=O)[C@H](CCC(=O)O)NC(=O)[C@@H](NC(=O)[C@H](C)NC(=O)[C@@H]1CCCNC(=O)C[C@H](NC(=O)[C@H](CCCNC(=N)N)NC(=O)CC[C@H](NC(=O)CCCCCCCCCCCCCCCCCCC(=O)O)C(=O)O)C(=O)NCC(=O)N[C@@H]([C@@H](C)O)C(=O)N[C@@H](C)C(=O)N[C@@H]([C@@H](C)O)C(=O)N1)[C@@H](C)O` [Compound 3, [19CD]-isoGlu-RD()GTAT-Orn()-ATERLAHFLQRSSF-Gly(Me)-A-Ile(Me)-LSSTEVGSNT-Hyp-NH2] ({C20 diacid-γGlu}-RDGTAT[Orn]ATERLAHFLQRSSF[Sar]A[NMeI]LSSTEVGSNT[Hyp]-NH2; lactam 2-7), the concentration for a half-maximal effect (EC50) in data set [1] came out at 0.081 nM. For the same molecule, the half-life in data set [2] was 21.3 h. Also, in data set [3], the “% degradation after 72 h at 40° C. pH4 acetate” value is listed as less than 1%, the “% degradation after 72 h at 40° C. pH6 phosphate” value is 3.2%, the “% degradation after 14 days at 40° C. pH6 phosphate” value is on record as 1.0% and the “% degradation after 72 h at 40° C. pH7 phosphate” value came out at 1.2%. Further, in data set [4], the “Fibrillation (in buffer) pH4 acetate” value is reported as “FND”, the “Fibrillation (in buffer) pH7 histidine” value is recorded as “FND” and the “Fibrillation (in buffer) pH7 phosphate” value was “FD”. For the same molecule, in data set [5], the “Body weight reduction in % at 48 h” value was 5.6% and the “Food intake reduction in % at 48 h” value worked out at 34%. The EC50 in data set [6] worked out at 0.035 nM.

In the case of `CC[C@H](C)[C@@H](C(=O)N[C@@H](CC(C)C)C(=O)N[C@@H](CO)C(=O)N[C@@H](CO)C(=O)N[C@H](C(=O)N[C@@H](CCC(=O)O)C(=O)N[C@H](C(=O)NCC(=O)N[C@@H](CO)C(=O)N[C@@H](CC(N)=O)C(=O)N[C@H](C(=O)N1C[C@H](O)C[C@H]1C(N)=O)[C@@H](C)O)C(C)C)[C@@H](C)O)N(C)C(=O)[C@H](C)NC(=O)CN(C)C(=O)[C@H](Cc1ccccc1)NC(=O)[C@@H](NC(=O)[C@@H](NC(=O)[C@H](CCCNC(=N)N)NC(=O)[C@H](CCC(N)=O)NC(=O)[C@H](CC(C)C)NC(=O)[C@H](Cc1ccccc1)NC(=O)[C@H](CCCC(=O)O)NC(=O)[C@H](C)NC(=O)[C@H](CC(C)C)NC(=O)[C@H](CCCNC(=N)N)NC(=O)[C@H](CCC(=O)O)NC(=O)[C@@H](NC(=O)[C@H](C)NC(=O)[C@@H]1CCCCNC(=O)C[C@H](NC(=O)[C@H](CCCNC(=N)N)NC(=O)CC[C@H](NC(=O)CCCCCCCCCCCCCCCCCCC(=O)O)C(=O)O)C(=O)NCC(=O)N[C@@H]([C@@H](C)O)C(=O)N[C@@H](C)C(=O)N[C@@H]([C@@H](C)O)C(=O)N1)[C@@H](C)O)[C@@H](C)O)[C@@H](C)O` [Compound 38, [19CD]-isoGlu-RD()GTATK()ATERLA-Aad-FLQRTTF-Gly(Me)-A-Ile(Me)-LSSTEVGSNT-Hyp-NH2] ({C20 diacid-γGlu}-RDGTATKATERLA[Aad]FLQRTTF[Sar]A[NMeI]LSSTEVGSNT[Hyp]-NH2; lactam 2-7), in data set [1], the EC50 turned out to be 0.114 nM. Further, in data set [2], the half-life was 31.8 h. In data set [3], the “% degradation after 72 h at 40° C. pH4 acetate” value is less than 1%, the “% degradation after 72 h at 40° C. pH6 phosphate” value is recorded as less than 1%, the “% degradation after 72 h at 40° C. pH7 phosphate” value is given as less than 1% and the “% degradation after 14 days at 40° C. pH7 phosphate” value is less than 1%. Besides, in data set [4], the “Fibrillation (in buffer) pH4 acetate” value is listed as “FD”, the “Fibrillation (in buffer) pH7 histidine” value was “FND” and the “Fibrillation (in buffer) pH7 phosphate” value is “FND”. In addition, in data set [5], the “Body weight reduction in % at 48 h” value was 8.2% and the “Food intake reduction in % at 48 h” value turned out to be 43%. The EC50 in data set [6] is 0.06 nM.

Consider `CC[C@H](C)[C@@H](C(=O)N[C@@H](CC(C)C)C(=O)N[C@@H](CO)C(=O)N[C@@H](CO)C(=O)N[C@H](C(=O)N[C@@H](CCC(=O)O)C(=O)N[C@H](C(=O)NCC(=O)N[C@@H](CO)C(=O)N[C@@H](CC(N)=O)C(=O)N[C@H](C(=O)N1C[C@H](O)C[C@H]1C(N)=O)[C@@H](C)O)C(C)C)[C@@H](C)O)N(C)C(=O)[C@H](C)NC(=O)CN(C)C(=O)[C@H](Cc1ccccc1)NC(=O)[C@H](CO)NC(=O)[C@H](CO)NC(=O)[C@H](CCCNC(=N)N)NC(=O)[C@H](CCC(N)=O)NC(=O)[C@H](CC(C)C)NC(=O)[C@H](Cc1ccccc1)NC(=O)[C@H](Cc1c[nH]cn1)NC(=O)[C@H](C)NC(=O)[C@H](CC(C)C)NC(=O)[C@H](CCCNC(=N)N)NC(=O)[C@H](CCC(=O)O)NC(=O)[C@@H](NC(=O)[C@H](C)NC(=O)[C@@H]1CCCNC(=O)C[C@H](NC(=O)[C@H](CCCNC(=N)N)NC(=O)CC[C@H](NC(=O)CC[C@H](NC(=O)CCCCCCCCCCCCCCCCCCC(=O)O)C(=O)O)C(=O)O)C(=O)NCC(=O)N[C@@H]([C@@H](C)O)C(=O)N[C@@H](C)C(=O)N[C@@H]([C@@H](C)O)C(=O)N1)[C@@H](C)O` [Compound 4, [19CD]-isoGlu-isoGlu-RD()GTAT-Orn()-ATERLAHFLQRSSF-Gly(Me)-A-Ile(Me)-LSSTEVGSNT-Hyp-NH2] ({C20 diacid-γGlu-γGlu}-RDGTAT[Orn]ATERLAHFLQRSSF[Sar]A[NMeI]LSSTEVGSNT[Hyp]-NH2; lactam 2-7), for which the EC50 in data set [1] stood at 0.16 nM. In addition, the half-life in data set [2] was 31.9 h. Also, in data set [3], the “% degradation after 72 h at 40° C. pH4 acetate” value is listed as less than 1%, the “% degradation after 72 h at 40° C. pH6 phosphate” value was less than 1%, the “% degradation after 14 days at 40° C. pH6 phosphate” value was less than 1% and the “% degradation after 72 h at 40° C. pH7 phosphate” value was less than 1%. Besides, the “% degradation after 14 days at 40° C. pH7 phosphate” value in data set [3] amounted to 6.4%. Further, the “% degradation after 14 days at 40° C. pH4 acetate” value in data set [3] (acetate buffer pH 4, 14 days) amounted to 1.6%. In addition, in data set [4], the “Fibrillation (in buffer) pH4 acetate” value was “FND”, the “Fibrillation (in buffer) pH7 histidine” value is “FND” and the “Fibrillation (in buffer) pH7 phosphate” value was “FND”. Further, in data set [5], the “Body weight reduction in % at 48 h” value came to 4.6% and the “Food intake reduction in % at 48 h” value is 34%. The EC50 in data set [6] came out at 0.092 nM.
